What was measured:
ERK1 = molecular target: T1, ERK1 (Homo sapiens, UniProt P27361); assay: ERK1 HTRF (biochemical) assay
T1 construct: purchased Jubilant Biosys
Experimental: (§1) ERK1 and ERK2 HTRF (Biochemical) Assays
These assays employed a homogeneous time resolved fluorescence (HTRF) technique. […] The plate was incubated at room temperature for 60 min with shaking. […] The IC50 values (half maximal inhibitory concentration values) were subsequently determined using a sigmoidal dose-response curve (variable slope) in GraphPad Prism® 5 software.

ERK2 = molecular target: T2, ERK2 (Homo sapiens, UniProt P28482); assay: ERK2 HTRF (biochemical) assay
T2 construct: purchased Jubilant Biosys
Experimental: as §1
These assays employed a homogeneous time resolved fluorescence (HTRF) technique. The compounds were serially diluted by half-log with concentrations ranging from 0.0005 to 10 uM in the assay buffer (50 mM Tris pH=7.5, 1 mM EGTA, 2 mM DTT, 10 mM MgCl2, 0.1% Tween-20) and 20 uL of substrate-ATP mix [1 uM Biotin-LC-Myelin Basic Protein (MBP) derivatized Peptide (Anaspec)-24 uM ATP (Sigma)] was added to each well of the assay plate. Then 10 uL of enzyme mix [25 nM ERK1 or ERK2 (Jubilant Biosys) in assay buffer] was added to each well. The plate was incubated at room temperature for 60 min with shaking. The HTRF mix [625 nM LANCE® Ultra Europium-anti-phospho-MBP (Perkin Elmer) and 2 nM Phycolink® Streptavidin-Allophycocyanin (SA-APC) (Prozyme) in HTRF buffer (50 mM Tris-HCl pH=7.5, 100 mM NaCl, 0.1% BSA, 0.05% Tween20, 0.5 mM EDTA)] was prepared and 75 uL of this mix was added to the HTRF plate. After incubation for 60 min at room temperature, 10 uL of the reaction mixture was transferred to the HTRF assay plate and incubated for 45 min at room temperature with shaking. Plate was read using Pherastar in HTRF mode (excitation 337 nm, emission 665 & 620 nm). The IC50 values (half maximal inhibitory concentration values) were subsequently determined using a sigmoidal dose-response curve (variable slope) in GraphPad Prism® 5 software.

T2 sequence (P28482 whole entry): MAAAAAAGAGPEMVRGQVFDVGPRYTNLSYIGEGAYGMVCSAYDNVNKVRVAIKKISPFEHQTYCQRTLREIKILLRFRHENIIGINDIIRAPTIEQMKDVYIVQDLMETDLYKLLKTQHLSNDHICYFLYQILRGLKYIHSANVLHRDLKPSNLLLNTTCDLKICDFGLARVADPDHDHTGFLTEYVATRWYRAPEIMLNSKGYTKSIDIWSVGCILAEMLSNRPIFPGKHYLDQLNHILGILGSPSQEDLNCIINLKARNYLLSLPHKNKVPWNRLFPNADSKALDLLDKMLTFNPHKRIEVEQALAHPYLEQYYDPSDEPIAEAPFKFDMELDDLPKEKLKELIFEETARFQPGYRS
T1 sequence (P27361 whole entry): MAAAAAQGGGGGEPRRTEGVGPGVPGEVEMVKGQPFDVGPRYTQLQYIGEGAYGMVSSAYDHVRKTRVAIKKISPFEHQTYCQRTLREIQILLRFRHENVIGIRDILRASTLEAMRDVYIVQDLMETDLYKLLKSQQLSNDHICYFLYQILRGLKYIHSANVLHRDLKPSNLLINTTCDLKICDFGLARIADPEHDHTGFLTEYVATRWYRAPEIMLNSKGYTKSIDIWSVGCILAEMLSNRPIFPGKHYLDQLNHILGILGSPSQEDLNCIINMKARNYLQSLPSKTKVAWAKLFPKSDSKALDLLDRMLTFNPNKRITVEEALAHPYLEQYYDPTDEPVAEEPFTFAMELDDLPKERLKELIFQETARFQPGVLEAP

Q: Which IC50 (ERK1; HTRF) does the source give for `Cc1cnc(NC2CC2)nc1-n1cc(C(=O)NC(CO)c2cccc(Cl)c2)cn1` (centres unmarked) [Compound 40, N-(1-(3-chlorophenyl)-2-hydroxyethyl)-1-(2-(cyclopropyl-amino)-5-methylpyrimidin-4-yl)-1H-pyrazole-4-carboxamide] here?
A: 50 to 100 nM

Q: What about the IC50 (ERK2; HTRF) of the same molecule?
A: 50 to 100 nM

Q: For `Cc1cnc(Nc2ccc3c(c2)OCO3)nc1-n1ccc(C(=O)NC(CO)c2cccc(Cl)c2F)c1` (centres unmarked) [Compound 70, 1-(2-(benzo[d][1,3]dioxol-5-ylamino)-5-methylpyrimidin-4-yl)-N-(1-(3-chloro-2-fluorophenyl)-2-hydroxyethyl)-1H-pyrrole-3-carboxamide], which IC50 (ERK1; HTRF) is on record?
A: < 50 nM

Q: What about the IC50 (ERK2; HTRF) of the same molecule?
A: ≤ 50 nM

Q: Which IC50 (ERK1; HTRF) does the source give for `Cc1cnc(NC2CCOCC2)nc1-n1cnc(C(=O)N[C@@H](CO)c2cccc(Cl)c2)c1` [Compound 217, (R)-N-(1-(3-chlorophenyl)-2-hydroxyethyl)-1-(5-methyl-2-((tetrahydro-2H-pyran-4-yl)amino)-pyrimidin-4-yl)-1H-imidazole-4-carboxamide] here?
A: 100 to 500 nM

Q: And the IC50 (ERK2; HTRF)?
A: 100 to 500 nM

Q: Which results are given for `Cc1cnc(NC2CCOCC2)nc1-n1cnc(C(=O)NC(CO)c2ccsc2)c1` (centres unmarked) [Compound 234, N-(2-hydroxy-1-(thiophen-3-yl)ethyl)-1-(5-methyl-2-((tetrahydro-2H-pyran-4-yl)amino)-pyrimidin-4-yl)-1H-imidazole-4-carboxamide]?
A: IC50 (ERK1; HTRF): < 50 nM; IC50 (ERK2; HTRF): ≤ 50 nM

Q: `Cc1cnc(NC2CC(F)(F)C2)nc1-n1cnc(C(=O)NCc2cccc(Cl)c2CO)c1` [Example 273, N-(3-chloro-2-(hydroxymethyl)benzyl)-1-(2-((3,3-difluorocyclobutyl)amino)-5-methyl-pyrimidin-4-yl)-1H-imidazole-4-carboxamide] was tested. Which IC50 (ERK1; HTRF) did it give?
A: < 50 nM

Q: And the IC50 (ERK2; HTRF)?
A: ≤ 50 nM

Q: With `O=C(N[C@H](CO)c1cccc(Cl)c1)c1cnn(-c2ccnc(Nc3ccccc3)n2)c1` [Compound 53, (S)-N-(1-(3-chlorophenyl)-2-hydroxyethyl)-1-(2-(phenylamino)pyrimidin-4-yl)-1H-pyrazole-4-carboxamide] as the molecule, how does the IC50 (ERK1; HTRF) read?
A: 100 to 500 nM

Q: What about the IC50 (ERK2; HTRF) of the same molecule?
A: 100 to 500 nM

Q: How did the IC50 (ERK1; HTRF) turn out when `CC[C@@H](CO)Nc1cc(-n2ccc(C(=O)NC(CO)c3ccccc3)c2)c(C)cn1` (stereo partly drawn) [Compound 100, N-(2-hydroxy-1-phenylethyl)-1-(2-(((S)-1-hydroxy-butan-2-yl)amino)-5-methylpyridin-4-yl)-1H-pyrrole-3-carboxamide] was run?
A: 50 to 100 nM

Q: And the IC50 (ERK2; HTRF)?
A: ≤ 50 nM

Q: With `Cc1cnc(NC2CC2)nc1-n1cc(NC(=O)NC(CO)c2cccc(Cl)c2)cn1` (centres unmarked) [Compound 28, 1-(1-(3-chloro-phenyl)-2-hydroxy-ethyl)-3-(1-(2-(cyclopropyl-amino)-5-methylpyrimidin-4-yl)-1H-pyrazol-4-yl)urea] as the molecule, how does the IC50 (ERK1; HTRF) read?
A: 50 to 100 nM

Q: And the IC50 (ERK2; HTRF)?
A: 50 to 100 nM

Q: With `CC[C@@H](CO)Nc1cc(-n2ccc(C(=O)NC(CO)c3cccc(Cl)c3)c2)ccn1` (stereo partly drawn) [Compound 109, N-(1-(3-chloro-phenyl)-2-hydroxy-ethyl)-1-(2-(((S)-1-hydroxybutan-2-yl)amino)pyridin-4-yl)-1H-pyrrole-3-carboxamide] as the molecule, how does the IC50 (ERK1; HTRF) read?
A: < 50 nM

Q: And the IC50 (ERK2; HTRF)?
A: ≤ 50 nM

Q: `Cc1cnc(N[C@H]2CCOC2)nc1-n1cnc(C(=O)NCc2cccc(C#N)c2)c1` [Example 310, (S)-N-(3-cyano-benzyl)-1-(5-methyl-2-((tetrahydrofuran-3-yl)amino)-pyrimidin-4-yl)-1H-imidazole-4-carboxamide] was tested. Which IC50 (ERK1; HTRF biochemical assay) did it give?
A: 100 to 500 nM

Q: And the IC50 (ERK2; HTRF biochemical assay)?
A: ≤ 50 nM

Q: Which IC50 (ERK1; HTRF) does the source give for `Cc1cnc(NC2CCOC2)nc1-n1ccc(C(=O)NC(CO)c2ccccc2)c1` (centres unmarked) [Compound 128, N-(2-hydroxy-1-phenylethyl)-1-(5-methyl-2-((tetrahydrofuran-3-yl)amino)pyrimidin-4-yl)-1H-pyrrole-3-carboxamide] here?
A: < 50 nM

Q: And the IC50 (ERK2; HTRF)?
A: ≤ 50 nM

Q: Which results are given for `Cc1cnc(NC(CO)CO)nc1-n1ccc(C(=O)NC(CO)c2ccccc2)c1` (centres unmarked) [Compound 147, 1-(2-((1,3-dihydroxypropan-2-yl)amino)-5-methylpyrimidin-4-yl)-N-(2-hydroxy-1-phenylethyl)-1H-pyrrole-3-carboxamide]?
A: IC50 (ERK1; HTRF): 50 to 100 nM; IC50 (ERK2; HTRF): ≤ 50 nM

Q: For `NCC(Cc1ccccc1)NC(=O)c1ccn(-c2ccnc(Nc3ccc(F)cc3)c2)c1` (centres unmarked) [Compound 119, N-(1-amino-3-phenylpropan-2-yl)-1-(2-((4-fluoro-phenyl)amino)pyridin-4-yl)-1H-pyrrole-3-carboxamide], which IC50 (ERK2; HTRF) is on record?
A: 100 to 500 nM

Q: For `Cc1c(NC(=O)N[C@H](CO)c2cccc(Cl)c2)cnn1-c1ccnc(Nc2ccccc2Cl)n1` [Compound 11, (S)-1-(1-(3-chlorophenyl)-2-hydroxyethyl)-3-(1-(2-((2-chloro-phenyl)amino)pyrimidin-4-yl)-5-methyl-1H-pyrazol-4-yl)urea], which IC50 (ERK2; HTRF) is on record?
A: > 2500 nM

Q: How did the IC50 (ERK2; HTRF) turn out when `Cc1cnc(Nc2ccc3occc3c2)nc1-n1ccc(C(=O)NC(CO)c2ccccc2)c1` (centres unmarked) [Compound 65, 1-(2-(benzofuran-5-ylamino)-5-methylpyrimidin-4-yl)-N-(2-hydroxy-1-phenylethyl)-1H-pyrrole-3-carboxamide] was run?
A: ≤ 50 nM

Q: For `Cc1cnc(Nc2ccccc2Cl)nc1-n1cc(NC(=O)N[C@@H](CO)c2cccc(Cl)c2)cn1` [Compound 61, (R)-1-(1-(3-chlorophenyl)-2-hydroxyethyl)-3-(1-(2-((2-chloro-phenyl)amino)-5-methylpyrimidin-4-yl)-1H-pyrazol-4-yl)urea], which IC50 (ERK2; HTRF) is on record?
A: 500 to 2500 nM

Q: Which IC50 (ERK1; HTRF) does the source give for `Cc1cnc(Nc2ccc(F)cc2Cl)nc1-n1cc(NC(=O)N[C@H](CO)c2ccc(F)c(Cl)c2)cn1` [Compound 26, (S)-1-(1-(3-chloro-4-fluorophenyl)-2-hydroxyethyl)-3-(1-(2-((2-chloro-4-fluorophenyl)amino)-5-methyl-pyrimidin-4-yl)-1H-pyrazol-4-yl)urea] here?
A: < 50 nM

Q: Which IC50 (ERK2; HTRF) does the source give for `Cc1cnc(NC2CCOCC2)nc1-n1ccc(C(=O)NC(CO)c2ccccc2)c1` (centres unmarked) [Compound 120, N-(2-hydroxy-1-phenylethyl)-1-(5-methyl-2-((tetrahydro-2H-pyran-4-yl)amino)pyrimidin-4-yl)-1H-pyrrole-3-carboxamide] here?
A: 100 to 500 nM

Q: Which IC50 (ERK2; HTRF) does the source give for `Cc1cnc(Nc2ccc(F)cc2Cl)nc1-n1ccc(C(=O)N[C@@H](CN(C)C)c2ccccc2)c1` [Compound 97, (R)-1-(2-((2-chloro-4-fluorophenyl)amino)-5-methy-lpyrimidin-4-yl)-N-(2-(dimethylamino)-1-phenylethyl)-1H-pyrrole-3-carboxamide] here?
A: 100 to 500 nM

Q: `COc1cc(N2CCN(C(C)=O)CC2)ccc1Nc1nccc(-n2cc(NC(=O)N[C@H](CO)c3cccc(Cl)c3)cn2)n1` [Compound 15, (S)-1-(1-(2-((4-(4-acetylpiperazin-1-yl)-2-methoxy-phenyl)amino)pyrimidin-4-yl)-1H-pyrazol-4-yl)-3-(1-(3-chlorophenyl)-2-hydroxyethyl)urea] was tested. Which IC50 (ERK1; HTRF) did it give?
A: 50 to 100 nM

Q: With `Cc1cnc(Nc2ccc3ocnc3c2)nc1-n1ccc(C(=O)NC(CO)c2ccccc2)c1` (centres unmarked) [Compound 104] as the molecule, how does the IC50 (ERK2; HTRF) read?
A: 100 to 500 nM

Q: With `O=C(NC(CO)c1ccccc1)c1ccn(-c2nc(Nc3ccc(F)cc3Cl)ncc2C(F)(F)F)c1` (centres unmarked) [Compound 122, 1-(2-((2-chloro-4-fluorophenyl)amino)-5-(trifluoro-methyl)pyrimidin-4-yl)-N-(2-hydroxy-1-phenylethyl)-1H-pyrrole-3-carboxamide] as the molecule, how does the IC50 (ERK2; HTRF) read?
A: > 2500 nM

Q: Which IC50 (ERK2; HTRF) does the source give for `Cc1cnc(Nc2ccc(F)cc2Cl)nc1-n1cc(NC(=O)N[C@@H](CO)c2cccc(Cl)c2)cn1` [Compound 56, (R)-1-(1-(2-((2-chloro-4-fluoro-phenyl)amino)-5-methylpyrimidin-4-yl)-1H-pyrazol-4-yl)-3-(1-(3-chloro-phenyl)-2-hydroxy-ethyl)urea] here?
A: 100 to 500 nM

Q: How did the IC50 (ERK2; HTRF) turn out when `O=C(NC(CO)c1cccc(Cl)c1)c1cnn(-c2ccnc(Nc3ccccc3)n2)c1` (centres unmarked) [Compound 52, N-(1-(3-chloro-phenyl)-2-hydroxy-ethyl)-1-(2-(phenyl-amino)pyrimidin-4-yl)-1H-pyrazole-4-carboxamide] was run?
A: 100 to 500 nM

Q: How did the IC50 (ERK2; HTRF) turn out when `C[C@@H](NC(=O)Nc1cnn(-c2ccnc(Nc3ccccc3Cl)n2)c1)c1cccc(Cl)c1` [Compound 10] was run?
A: > 2500 nM

Q: `Cc1cnc(Nc2ccc3c(c2)OCO3)nc1-n1cc(C(=O)N[C@H](CO)c2cccc(Cl)c2)cn1` [Compound 50, (S)-1-(2-(benzo[d][1,3]dioxol-5-ylamino)-5-methylpyrimidin-4-yl)-N-(1-(3-chloro-phenyl)-2-hydroxy-ethyl)-1H-pyrazole-4-carboxamide] was tested. Which IC50 (ERK2; HTRF) did it give?
A: ≤ 50 nM

Q: With `CC(NC(=O)Nc1cnn(-c2ccnc(Nc3ccccc3Cl)n2)c1)c1cccc(Cl)c1` (centres unmarked) [Compound 5, 1-(1-(2-((2-chlorophenyl)amino)pyrimidin-4-yl)-1H-pyrazol-4-yl)-3-(1-(3-chloro-phenyl)ethyl)urea] as the molecule, how does the IC50 (ERK1; HTRF) read?
A: 100 to 500 nM

Q: With `Cc1cnc(Nc2ccc(F)cc2Cl)nc1-n1cc(NC(=O)N[C@H](CO)c2cccc(Cl)c2)cn1` [Compound 25, (S)-1-(1-(2-((2-chloro-4-fluoro-phenyl)amino)-5-methylpyrimidin-4-yl)-1H-pyrazol-4-yl)-3-(1-(3-chloro-phenyl)-2-hydroxy-ethyl)urea] as the molecule, how does the IC50 (ERK1; HTRF) read?
A: < 50 nM

Q: How did the IC50 (ERK2; HTRF) turn out when `O=C(NCc1cccc(Cl)c1)Nc1cnn(-c2ccnc(Nc3ccccc3Cl)n2)c1` [Compound 9, 1-(3-chlorobenzyl)-3-(1-(2-((2-chloro-phenyl)amino)pyrimidin-4-yl)-1H-pyrazol-4-yl)urea] was run?
A: > 2500 nM
